Experimental data: paper PMC10938439, “C-3 Steroidal Hemiesters as Inhibitors of 17β-Hydroxysteroid Dehydrogenase Type 10” (ACS Omega, 2024)
“And” between values parts separate entries of the source, which are not always exact repeats. Equal entries are not always repeated. Where two headings read alike, the source gives them in different places.

How the values were obtained:
17β-HSD10 [1] = test system: 17β-HSD10; design: method as in PMID 37458164; conditions: 17β-HSD10 inhibition, literature value; cited from earlier work
17β-HSD10 [2] = target: T1, 17β-HSD10 (Homo sapiens, UniProt Q99714); assay: Inhibition of 17β-estradiol to estrone transformation by purified recombinant 17β-HSD10 (NADH fluorescence); assay type: biochemical; conditions: for inhibition at 10 µM: read-out: Inhibition at 10 µM (%) (this study); for IC50: purified recombinant 17β-HSD10, 17β-estradiol as substrate, means ± SEM (n = 4); for inhibition at 1 µM: read-out: Inhibition at 1 µM (%) (this study)
T1 construct: inferred from Ni-NTA purification with imidazole elution; made in house; host or cells: E. coli BL21 (DE3)
T1 sequence (Q99714 1-261): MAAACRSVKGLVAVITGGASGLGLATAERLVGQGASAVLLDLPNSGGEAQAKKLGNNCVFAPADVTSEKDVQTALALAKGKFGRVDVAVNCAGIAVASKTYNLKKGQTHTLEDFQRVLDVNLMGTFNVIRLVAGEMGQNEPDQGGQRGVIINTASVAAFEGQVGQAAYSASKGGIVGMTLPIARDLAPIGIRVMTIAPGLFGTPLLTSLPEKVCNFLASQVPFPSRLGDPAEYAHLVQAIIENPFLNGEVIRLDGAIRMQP
Experimental: As standards, we used the known inhibitor AG18051 as the positive control and the published steroidal compounds,[18] namely, pregnenolone, testosterone, dihydrotestosterone, androsterone, epiandrosterone, and dehydroepiandrosterone.
17β-HSD10 was performed as described previously.[11] Briefly, the autoinduction and overexpression were performed at 25 °C for 18 h in the E. coli BL21 (DE3) strain. The bacterial pellet was resuspended in lysis buffer that consisted of sodium phosphate buffer ([…]), NaCl (150 mM), and imidazole (10 mM, pH 8.0) with 1 mg/mL lysozyme and benzonase (150 U/mL). cOmplete EDTA-free protease inhibitor cocktail was incubated for 20 min on ice and then sonicated (12 × 10 s pulses with 30 s pauses). The supernatant was applied to the Ni-NTA agarose resin after centrifugation (16 000g, 10 min, 4 °C). Then, the solution was incubated on ice for 1 h with gentle stirring.
The standard steroids were screened at 1 and 10 μM concentrations, and the tested compounds and standard AG18051 were screened at 10 μM concentration. For compounds with at least 50% inhibition of 17β-HSD10, the IC50 values were determined.
Steroid stock solutions (5 mM) were further diluted with DMSO to the working concentrations. DMSO was used as a vehicle control, and AG18051 was used as a control inhibitor. The enzyme activity was determined fluorometrically at 37 °C in the activity assay buffer [100 mM potassium phosphate buffer (pH 8.0)]. The general reaction mixture (200 μL per well) consisted of 17β-estradiol (25 μM, DMSO), NAD+ (500 μM, deionized water), recombinant 17β-HSD10 (45 nM), and different concentrations of inhibitor (2.2% (v/v) final concentration of DMSO as solvent). Before the addition of substrate, the reaction mixture of enzyme, cofactor, and inhibitor in the assay buffer was preincubated for 5 min at 37 °C. The increase of fluorescence (Ex/Em = 340/460 nm) due to the formation of NADH was monitored for 20 min (30 s intervals). For IC50 value determination, dose–response inhibition at 11 different concentrations of inhibitor (0.6–33.75 μM) was determined and the data were analyzed by GraphPad Prism 8.4.3 (GraphPad Software Inc.). All measurements were performed in a tetraplicate.

[3] = design: method as in PMID 30296546; conditions: cited from earlier work
Caco-2 cells = test system: Caco-2 cells; design: method as in PMID 30296546; conditions: cited from earlier work
[4] = design: method as in PMID 30296546; conditions: cited from earlier work; remark: listed apart in the source
HEK-293 cell line = test system: HEK-293 cell line; design: method as in PMID 37458164; conditions: cited from earlier work
17β-HSD10 [5] = conditions: cited from earlier work; for Inhibition at 1 µM (%) Ayan et al. 2012: 1 µM steroid, different (cellular) assay, ref Ayan et al. 2012 (ref 18)
17β-HSD10 [6] = test system: 17β-HSD10; design: method as in PMID 30297283; conditions: in vitro, recombinant enzyme, cited from earlier work
[7] = 10 μM compound, 17β-estradiol as substrate, means ± SD (n = 4)

| SMILES | IC50 (17β-HSD10 [2]) | human plasma stability, % remaining after 8 h [3] | Caco-2 cell permeability (50 μM) Papp (Caco-2 cells) | rat plasma stability, % remaining after 8 h [4] | inhibition at 1 µM (17β-HSD10 [2]) | inhibition at 10 µM (17β-HSD10 [2]) | Inhibition at 1 µM (%) Ayan et al. 2012 (17β-HSD10 [5]) | other results |
| --- | --- | --- | --- | --- | --- | --- | --- | --- |
| O=C(C(c1ccccc1)n1cnc2[nH]ncc2c1=S)N1CCCCCC1 (stereo not shown) [AG18051, 1-azepan-1-yl-2-phenyl-2-(4-thioxo-1,4-dihydropyrazolo [3–d]pyrimidin-5-yl)-ethanone] | – | – | – | – | – | – | – | IC50 (17β-HSD10 [1]): 0.09 ± 0.01 µM |
| CC(=O)[C@H]1CC[C@H]2[C@@H]3CC=C4C[C@@H](OC(=O)CCCC(=O)O)CC[C@]4(C)[C@H]3CC[C@]12C [Compound 10, 20-Oxo-pregn-5-en-3β-yl Hemiglutarate] | 16.9 ± 1.33 µM | – | – | – | – | – | – | inhibition at 10 µM (17β-HSD10 [2]; [7]): ~50% |
| CC[C@H]1CC[C@H]2[C@@H]3CC=C4C[C@@H](OC(=O)CCC(=O)O)CC[C@]4(C)[C@H]3CC[C@]12C [Compound 14, Pregn-5-en-3β-yl Hemisuccinate] | 9.94 ± 0.23 µM | 100% | 5.7 × 10^–6 cm/s | 55% | – | – | – | – |
| CC[C@H]1CC[C@H]2[C@@H]3CC=C4C[C@@H](OC(=O)CCCC(=O)O)CC[C@]4(C)[C@H]3CC[C@]12C [Compound 15, Pregn-5-en-3β-yl Hemiglutarate] | 9.01 ± 0.43 µM | 100% | 1.9 × 10^–6 cm/s | 99% | – | – | – | – |
| CC[C@H]1CC[C@H]2[C@@H]3CC=C4C[C@@H](OC(=O)CCCCC(=O)O)CC[C@]4(C)[C@H]3CC[C@]12C [Compound 16, Pregn-5-en-3β-yl Hemiadipate] | 9.29 ± 0.28 µM | 94% | 1.2 × 10^–6 cm/s | 43% | – | – | – | – |
| C[C@@]12CCC[C@H]1[C@@H]1CC=C3C[C@@H](OC(=O)CCC(=O)O)CC[C@]3(C)[C@H]1CC2 [Compound 21, Androst-5-en-3β-yl Hemisuccinate] | 7.33 ± 0.45 µM | 99% | 1.0 × 10^–4 cm/s | 88% | – | – | – | – |
| C[C@@]12CCC[C@H]1[C@@H]1CC=C3C[C@@H](OC(=O)CCCC(=O)O)CC[C@]3(C)[C@H]1CC2 [Compound 22, Androst-5-en-3β-yl Hemiglutarate] | ~6.95 µM and 6.95 µM | 98% | 1.2 × 10^–5 cm/s | 57% | – | – | – | – |
| C[C@@]12CCC[C@H]1[C@@H]1CC=C3C[C@@H](OC(=O)CCCCCC(=O)O)CC[C@]3(C)[C@H]1CC2 [Compound 24, Androst-5-en-3β-yl Hemipimelate] | 7.17 ± 0.4 µM | 100% | 1.3 × 10^–6 cm/s | 38% | – | – | – | – |
| CC(=O)[C@H]1CC[C@H]2[C@@H]3CCC4=C[C@@H](O)CC[C@]4(C)[C@H]3CC[C@]12C [Compound 26] | – | – | – | – | – | – | – | toxicity for HEK-293 cell line (HEK-293 cell line): toxic |
| COc1cccc(CN2CCN(C[C@@]3(O)CC[C@@]4(C)[C@@H](CC[C@@H]5[C@@H]4CC[C@]4(C)C(=O)CC[C@@H]54)C3)CC2)c1 [RM-532-46, (3α,5α,17α)-3-Hydroxy-3-[4-(3-methoxybenzyl)piperazin-1-yl]methylandrostan-17-one] | – | – | – | – | – | – | – | IC50 (17β-HSD10 [5]; cellular assay using HEK-293 cells): 0.55 µM; IC50 (17β-HSD10 [6]; 17β-estradiol, read-out: IC50 using 17β-estradiol as substrate): 610 µM; IC50 (17β-HSD10 [6]; allopregnanolone, read-out: IC50 using allopregnanolone as substrate): 235 µM |
| C[C@]12CC[C@@H](O)C[C@@H]1CC[C@@H]1[C@@H]2CC[C@]2(C)C(=O)CC[C@@H]12 [androsterone] | – | – | – | – | 3.2 ± 2.2% | 0% | 7.0 ± 5.9% | – |
| C[C@]12CC[C@H](O)CC1=CC[C@@H]1[C@@H]2CC[C@]2(C)C(=O)CC[C@@H]12 [dehydroepiandrosterone] | – | – | – | – | 5.4 ± 3.7% | 6.6 ± 3.5% | 0.0 ± 3.2% | – |
| C[C@]12CCC(=O)C[C@@H]1CC[C@@H]1[C@@H]2CC[C@]2(C)[C@@H](O)CC[C@@H]12 [dihydrotestosterone] | – | – | – | – | 0% | 6.3 ± 2% | 15 ± 0.8% | – |
| C[C@]12CC[C@H](O)C[C@@H]1CC[C@@H]1[C@@H]2CC[C@]2(C)C(=O)CC[C@@H]12 [epi-androsterone, epiandrosterone] | – | – | – | – | 2 ± 4.9% | 7 ± 2.5% | 6.0 ± 1.0% | – |
| CC(=O)C1CCC2C3CC=C4CC(O)CCC4(C)C3CCC12C (stereo not shown) [pregnenolone] | – | – | – | – | – | – | 11 ± 2.6% | inhibition at 1 µM (17β-HSD10 [2]; 1 µM steroid, 17β-estradiol as substrate, means ± SD (n = 4)): 0%; inhibition at 10 µM (17β-HSD10 [2]; [7]): 5.9 ± 0.8% |
| C[C@]12CC[C@H]3[C@@H](CCC4=CC(=O)CC[C@@]43C)[C@@H]1CC[C@@H]2O [testosterone] | – | – | – | – | 10.3 ± 5.1% | 15.7 ± 3.8% | 0.0 ± 3.2% | – |
